The test system of series [1] is FASN activity in HepG2 cells. Put plainly: [3H] glucose and acetate incorporation into lipids in HepG2 cells. In kind it is cell-based. To be noted: for EC50 / IC50: Homo sapiens. Here is the method:
To specifically identify inhibitors of FASN targeting its nucleotide binding pockets Cibacron blue Sepharose was utilized. This medium has been used previously to purify NAD and NADP binding proteins from crude tissues extracts (Miyaguchi et al., 2011; Muratsubaki et al., 1994). FASN enriched extract from lactating pig mammary gland was bound to the resin and labeled with cysteine reactive fluorescein. […] Next, the molecules were tested for their ability to inhibit FASN activity in a HepG2 cell based assay that measured the incorporation of ^3H glucose into lipids (FIG. 1B and FIG. 9).
(§1) Incorporation of radiolabeled glucose or acetate in total lipids was measured according to published methods (Haystead and Hardie, 1986). HepG2 cells (80% confluent in 12 wells plates) were starved overnight in MEM Alpha, the medium was then changed with DMEM medium containing 0.1 g/L glucose 10% FBS and 5 μM insulin and 1 μCi 3-[^3H] D-glucose or 1 μCi [^3H]-acetate in addition to different concentrations of each compound. After incubation for 1 hour at 37° C., 5% CO2, the cells were washed with ice cold PBS and detached by treating with 100 μl trypsin for 10 min then 1 ml of ice cold PBS was added. The cells suspension was then sonicated for 3 times in 30 seconds intervals and kept on ice. From each well 1 ml of cell lysate was added to a 4 ml scintillation vial and 2 ml of MicroScint-E was added. The vials were mixed thoroughly then centrifuged for 30 min at 3000 rpm and the ^3H radioactivity was measured by liquid scintillation counting.

The conditions of series [2]: 15 mg/kg IP.
For the next series, the system named is HIV-1. The conditions noted are these: for HIV-1 p24 production reduced by: PBMC. Here is the method:
Primary cell experiments were approved by the Ohio State University Institutional Review Board, protocol #2014H0001. Peripheral blood mononuclear cells (PBMC) were isolated from healthy donor by Ficoll-Paque centrifugation, stimulated in complete RPMI 1640 medium (Gibco, Carlsbad, Calif.) containing 10% FBS, 100 μg/mL penicillin/streptomycin and supplemented with 5 μg/mL phytohemaglutinin (PHA; Gibco) for 48 h, and maintained thereafter in complete RPMI medium supplemented with 20U/mL of interleukin-2 (Gibco). PBMCs were seeded in 24-well plate (2×10^5 cells/well) and triplicate wells were treated with 10 or 50 μM C75, HS-106, or with DMSO and subsequently infected with 10 ng/mL p24 equivalents of HIV-1LucR-T2A virus, which is derived from NL4-3 (Edmonds et al., 2010). Cells were washed 24 h post infection. Supernatants were collected 4 days post infection and p24 content analyzed by quantitative ELISA (Zeptometrix).

For series [3], the system named is ATP binding proteins of BT474 cells lysate. Nature of the series: Elution of ATP Sepharose loaded with BT474 cells lysate. The conditions noted are these: 1, 2.5, 5 and 10 mM. The protocol:
FIGS. 13A-13D illustrate the characterization of purified FASN and Fasnall elution of ATP Sepharose. […] Lane 6 and 7 are 10 mM Staurosporine and 50 mM ATP, respectively, as positive controls.

The next series concerns SKBR3 cells. Nature of the series: Caspase 3/7 activity assay. In kind it is cell-based. To be noted: SKBR3, 24 hours. The protocol:
(§2) The assay was performed using a similar protocol to the one described by Fritz et al (Fritz et al., 2001). Cells were seeded at a density of 10,000 cells/well and treated with different concentrations of HS-106 or C75. After 24 hours, to each well, 50 μl of Caspase assay/lysis buffer (50 mM HEPES pH 7.5, 100 mM KCl, 5 mM EDTA, 10 mM MgC12, 10 mM CHAPS, 20% Sucrose, 10 mM DTT, 10 μM of (Z-DEVD)2-Rh110 (Santa Cruz Biotech) and complete protease inhibitor (Roche))was added. After 6 hours of incubation at 37° C., fluorescence was measured at Ex/Em: 485/535 nm.

Series [4] concerns BT474 cells. Put plainly: Caspase 3/7 activity assay. In kind it is cell-based. The conditions noted are these: BT474, 24 hours. Here is the method:
as §2

The subject of a further series is HepG2 cells. Nature of the series: HepG2 cell viability (Resazurin). In kind it is cell-based. The protocol: HepG2 cells were seeded in 96 well plates and after reaching 80% confluency, the cells were treated with different concentrations of HS-106 for 4 hours. At the end of the treatment time, 10 μl of 700 μM Resazurin (prepared with PBS) were added to each well. After 3 hours, the Resorufin fluorescence was measured at Ex/Em: 540/590 nm.
For orientation: Resazurin is reduced to fluorescent resorufin, in cell work by metabolically active cells.

The next series is described as follows: in vivo. The conditions noted are these: MMTV-Neu, mouse, 15 mg/kg, n=3.
The subject of series [5] is MMTV-Neu model of HER2+ breast cancer. Nature of the series: Efficacy in MMTV-Neu model of HER2+ breast cancer. Format: in vivo, mice. The conditions noted are these: 30 pmol/kg IP biweekly, vehicle 29 days.
Series [6] has as its system BT474 cells. Nature of the series: Acetate and glucose incorporation into lipids in HER2+ BT474 breast cancer cell line. Format: cell-based. To be noted: Homo sapiens. The protocol: as §1
T474 cells were seeded in 6 well plates in 10% FBS 4.5 g/L glucose DMEM at a density of 400,000 cells/well. After 24 hours the media was changed with 0.1 g/L glucose DMEM containing different concentrations of HS-106. […] To each fraction, 1 ml of 25 g/L Butyl PBD dissolved in Toluene was added and radioactivity was measured by scintillation counting.

Results on one molecule are retold here after patent US11679111B2, “Fatty acid synthase inhibitors” (priority 2016, dated 2023).

Molecules are shown by their SMILES. Like-named read-outs stand apart in the source and are kept apart here. A value given as a limit tells only on which side of the number the result lay.

As usually defined, the half-life is how long it takes for the measured level to halve.

Description for PBMC: Unfixed PBMCs were exposed to drug for 48 hours, and PBMC viability was assessed by flow cytometry using propidium iodine (PI) exclusion (BD Pharmingen) and Annexin V staining (BD Pharmingen). Viable cells are defined as cells that both exclude PI and are Annexin V negative.

`Cc1sc2ncnc(NC3CCN(Cc4ccccc4)C3)c2c1C` (racemic) [HS-106, N-(1-benzylpyrrolidin-3-yI)-5,6-dimethylthieno[2,3-d]pyrimidin-4-amine]: in series [1] (FIG. 2D, cell line not stated), the “inhibition of tritiated acetate incorporation into lipids” value is “inhibit the incorporation of tritiated acetate into lipids”. Also, the “rank among the 13 molecules tested, 3H glucose incorporation into lipids” value in series [1] (HepG2 cells) is reported as “most potent inhibitor”. Besides, the EC50 was determined as 147 nM in [1] (HepG2, read-out: EC50, blockade of acetate incorporation into total lipids) and 213 nM in series [1] (HepG2, read-out: EC50, blockade of glucose incorporation into total lipids). The IC50 in series [1] (HepG2, read-out: IC50, incorporation of tritiated acetate into lipids) was 147 nM; in [1] (HepG2, read-out: IC50, incorporation of tritiated glucose into lipids), 213 nM; with BT474 cells [6] (BT-474, acetate as tracer, read-out: IC50, acetate incorporation into total lipids) it was approximately 1500 nM; in the series with BT474 cells [6] (BT-474, glucose as tracer, read-out: IC50, glucose incorporation into total lipids), 1660 nM. Also, the “time of appearance in plasma after IP injection” value in [2] was not above 5 min. Besides, the “HIV-1 p24 production reduced by” value was 87% in the series on HIV-1 (10 μM) and 96% with HIV-1 (50 μM). Moreover, in the series on HIV-1 (primary PBMCs, 10 μM), the “reduction of HIV-1 p24 production” value is “approximately 10 fold”. Also, in the series with PBMC, the “effect on PBMC viability” value was “negligible effects on cell viability”. Moreover, in series [3], the “elution of proteins from ATP Sepharose” value is on record as “does not elute any proteins more than DMSO”. Further, the “caspase activity relative to MCF10A cells” value with SKBR3 cells stood at 2 fold; in the series on BT474 cells [4] it was 10 fold. In addition, in the series on HepG2 cells, the HepG2 cell viability entry is given as “without affecting the cell viability”. Also, the half-life in “in vivo” (T1/2 tumor tissue) stood at 65.71 ± 0.32 min; in “in vivo” (ip, T1/2 kidney, 15 mg/kg IP) it was 9.9 ± 0.01 min; in the series “in vivo” (ip, T1/2 liver, 15 mg/kg IP), 9.84 ± 0.09 min; in the series “in vivo” (ip, T1/2 plasma, 15 mg/kg IP) it was 9.81 ± 0.02 min. For the same molecule, the median survival in series [5] turned out to be 63 days.
